Patent publication US12503453B2, “USP7 inhibition” (Dana-Farber Cancer Institute, Inc., priority 2018, dated 2025)

Key:
[1] = system: MCF7 cells; assay: Transcriptome profiling, 3' Digital Gene Expression RNA-seq; format: cell-based; conditions: 24 hours, low or high doses
Description: Overall, transcripts were detected for 7000-10,000 genes (7276 genes detected across all conditions).
The same report had also identified a set of dimerization partner, Retinoblastoma-like, E2F and multi-vulval class B (DREAM) complex target genes by combining p53 repression data (generated in part with Nutlin-3A-treated MCF7 cells) with cell cycle expression and DREAM component binding.

[2] = target: USP7 (Homo sapiens (Human), UniProt Q93009); assay: Live cell treatment and competitive ABPP with HA-Ub-VS; format: cell-based; conditions: live cell treatment, 6 hr; read-out: IC50 of USP7 inhibition in cyto
Chain of USP7 (Q93009 whole entry): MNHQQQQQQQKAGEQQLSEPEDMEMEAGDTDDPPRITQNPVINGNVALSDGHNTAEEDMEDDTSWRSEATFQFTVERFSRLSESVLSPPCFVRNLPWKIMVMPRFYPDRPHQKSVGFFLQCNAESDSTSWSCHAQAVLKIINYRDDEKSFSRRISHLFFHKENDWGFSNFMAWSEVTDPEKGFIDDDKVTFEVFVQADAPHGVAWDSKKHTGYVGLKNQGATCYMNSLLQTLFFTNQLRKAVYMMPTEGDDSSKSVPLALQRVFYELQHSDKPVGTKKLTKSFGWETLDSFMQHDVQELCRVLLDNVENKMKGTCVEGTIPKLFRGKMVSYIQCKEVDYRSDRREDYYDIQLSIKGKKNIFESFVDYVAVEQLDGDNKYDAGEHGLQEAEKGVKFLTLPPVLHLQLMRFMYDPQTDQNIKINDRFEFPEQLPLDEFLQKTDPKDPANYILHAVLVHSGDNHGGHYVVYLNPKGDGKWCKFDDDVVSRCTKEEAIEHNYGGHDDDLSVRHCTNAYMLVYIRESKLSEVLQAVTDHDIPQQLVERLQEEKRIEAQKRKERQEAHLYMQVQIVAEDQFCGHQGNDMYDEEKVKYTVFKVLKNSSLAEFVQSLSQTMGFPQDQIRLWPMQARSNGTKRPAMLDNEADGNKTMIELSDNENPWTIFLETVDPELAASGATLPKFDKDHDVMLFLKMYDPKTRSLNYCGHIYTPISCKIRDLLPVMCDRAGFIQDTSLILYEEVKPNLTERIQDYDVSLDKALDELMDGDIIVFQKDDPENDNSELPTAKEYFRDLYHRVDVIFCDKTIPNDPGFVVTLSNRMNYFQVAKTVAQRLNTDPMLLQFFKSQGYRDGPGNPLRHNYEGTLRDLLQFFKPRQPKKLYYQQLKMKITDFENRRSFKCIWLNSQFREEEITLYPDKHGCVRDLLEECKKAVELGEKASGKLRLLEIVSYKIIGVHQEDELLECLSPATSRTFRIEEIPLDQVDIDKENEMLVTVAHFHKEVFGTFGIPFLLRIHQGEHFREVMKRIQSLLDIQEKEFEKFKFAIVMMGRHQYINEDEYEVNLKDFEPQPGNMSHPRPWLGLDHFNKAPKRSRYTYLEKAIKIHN
Description: HA-Ub-VS experiments were performed as previously described in Lamberto, I. et al. Structure-Guided Development of a Potent and […] Selective Non-covalent Active-Site Inhibitor of USP7. Cell Chem. Biol. 24, 1490-1500 (2017). Briefly, target engagement lysis buffer (50 mM Tris pH 8.0, 150 mM NaCl, 5 mM MgCl2, 0.5 mM EDTA, 0.5% NP-40, 10% glycerol, 1 mM TCEP, protease and phosphatase inhibitors) was added to cell pellets on ice. Lysate was cleared by centrifugation and diluted to 1.67 mg/mL. Where indicated, 30 μL lysate was then incubated with inhibitors or DMSO for the indicated timepoints. 1 μM HA-Ub-VS was then added to the lysate and incubated at RT for the indicated time points. Labeling reactions were quenched with 4×LDS sample buffer (Thermo Fisher B0007) supplemented with 10% BME, vortexed vigorously, and heated to 95° C. for 5 minutes. Samples were resolved by SDS-PAGE and analyzed by Western blot with the indicated antibodies.

[3] = system: TC32 cells; assay: Cell proliferation (CellTiter-Glo), TC32; format: cell-based; conditions: TP53 wild-type, 3 days
Description: Cells were plated in 384-well culture-treated plates and allowed to settle overnight. After drug treatment and appropriate incubation time, cell viability was assessed using the CellTiter-Glo Luminescent Cell Viability Assay (Promega). Luminescence was read on a Fluostar Omega Reader (BMG Labtech).

[4] = target: HEK293 proteome (USP7) (Homo sapiens (Human), UniProt Q93009); assay: Compound 6-DTB proteome-wide profiling; format: binding; conditions: HEK293 cell lysates, 5 hours, 1 μM or 10 μM
Chain of HEK293 proteome (USP7) (Q93009 whole entry): as above
Description: HEK 293AD cells were lysed as described above, and the lysate was cleared by centrifugation. […] SDS was added to a final concentration of 1.2% (27.2 μL of a 10% stock), and denatured by heating to 80° C. for 5 minutes. After cooling to RT, 1125 μL 1×PBS was added to dilute the final SDS concentration to 0.2%. 50 μL streptavidin agarose slurry was added to each sample, followed by incubation at RT for 3 hours. After streptavidin enrichment, samples were washed vigorously (2×0.2% SDS, 3×PBS, 3×ddH2O). After the final wash, all supernatant was removed using a flat-bottom tip, and the resin was flash frozen and stored at −80° C. until workup for TMT labeling.
(§1) Streptavidin beads were resuspended in 95 μL 100 mM Tris pH 8.0. Each sample was denatured with 0.1% rapigest, reduced (10 mM dithiothreitol), alkylated (22.5 mM iodoacetamide), and digested with trypsin overnight at 37° C. […] Eluted peptides were then analyzed by nanoLC-MS as described (Ficarro, S. B. et al. Improved electrospray ionization efficiency compensates for diminished chromatographic resolution and enables proteomics analysis of tyrosine signaling in embryonic stem cells. Anal. Chem. 81, 3440-3447 (2009)) with a NanoAcquity UPLC system (Waters, Milford, MA) interfaced to a QExactive HF mass spectrometer (Thermofisher Scientific, San Jose, CA). […]

[5] = target: DUBs in HEK293AD lysate (Homo sapiens, UniProt Q93009); assay: In situ DUB profiling, competitive ABPP with Bio-Ub-PA/VME and quantitative MS; format: binding; conditions: HEK293 crude cell extract, 5 hours pre-incubation
Description: DUB profiling was performed using conditions similar to those in Lawson, A. P. et al. Identification of deubiquitinase targets of isothiocyanates using SILAC-assisted quantitative mass spectrometry. Oncotarget 5, (2017). HEK 293AD cells were lysed using target engagement lysis buffer (50 mM Tris pH 8.0, 150 mM NaCl, 5 mM MgCl2, 0.5 mM EDTA, 0.5% NP-40, 10% glycerol, 1 mM TCEP, protease and phosphatase inhibitors), and the lysate was cleared by centrifugation. […] Excess inhibitor was removed using a 30K Amicon spin filter, then the resulting lysate was incubated with 1 μM each of Biotin-Ub-PA and Biotin-Ub-VME for 90 minutes at RT. SDS was added to a final concentration of 1.2%, and samples were heated to 80° C. for 5 minutes. After cooling to RT, 1×PBS was added to dilute the final SDS concentration to 0.2%. […]
as §1, with “8.0.” for “8.0. Each sample was denatured with 0.1% rapigest, reduced (10 mM dithiothreitol), alkylated (22.5 mM iodoacetamide), and digested with trypsin overnight at 37° C.”

CN1CCN(CCC(=O)Nc2ccc3c(=O)n(CC4(O)CCN(C(=O)[C@@H](CCCNC(=O)c5ccc6c(Cl)c7c(nc6c5)CCCC7)Cc5ccccc5)CC4)cnc3c2)CC1 [compound 6, (S)—N-(4-benzyl-5-(4-hydroxy-4-((7-(3-(4-methylpiperazin-1-yl)propanamido)-4-oxoquinazolin-3(4H)-yl)methyl)piperidin-1-yl)-5-oxopentyl)-9-chloro-5,6,7,8-tetrahydroacridine-3-carboxamide]
transcriptional profile [1]: strongly correlated transcriptional profiles
IC50 [2]: 39 nM
growth inhibition [3]: potently inhibited
inhibition of compound 6-DTB labeling of USP7 (only protein of 566) [4]: > 3 fold
blocking of USP7 labeling by DUB ABPs [5]: significantly blocked USP7 labeling
